One series can be described thus: Solubility in solvents. In kind it is physicochemical.
Series [1] is described as follows: Immunogenicity and toxicity on administration. The class given is in vivo.
A further series deals with Male rats. Description: Diuretic and natriuretic action in anesthetized rats (urine collected via bladder cannula). The class given is in vivo, rat. The settings on record: 1.21 μ mole, group V. The procedure:
To keep the respiratory tract open, a tracheal cannula (PE-240 Clay-Adams) was inserted into the trachea. An arterial cannula (PE-50) was inserted into a femoral artery for measurement of the blood pressure, and a venous cannula was inserted into a femoral vein for the administration of Ringer's solution. 1.2 ml of Ringer's solution was injected for ten minutes, and subsequently, was constantly infused at a flow rate of 1.2 ml/hour.
A bladder cannula made of silastic tube with an inner diameter of 0.02 inches and an outer diameter of 0.037 inches was inserted into the bladder, and via the cannula, a urine sample was collected into a test tube. The collection of urine was carried out for 30 minutes before administration of the test compound, and every five minutes after the administration.
The control group (group I) was administered 50 μl of physiological saline containing only bacitracin.
Groups I to IV each consisted of three animals, and group V consisted of four animals.

The structures appear in SMILES notation.

Take `CC[C@H](C)[C@@H]1NC(=O)[C@H](CCCNC(=N)N)NC(=O)[C@H](CC(=O)O)NC(=O)[C@H](CCSC)NC(=O)[C@H](CCCNC(=N)N)NC(=O)CNC(=O)CNC(=O)[C@H](Cc2ccccc2)NC(=O)[C@@H](NC(=O)[C@H](CO)NC(=O)[C@H](CO)NC(=O)[C@H](CCCNC(=N)N)NC(=O)[C@H](CCCNC(=N)N)NC(=O)[C@H](CC(C)C)NC(=O)[C@@H](N)CO)CSSC[C@@H](C(=O)N[C@@H](CC(N)=O)C(=O)N[C@@H](CO)C(=O)N[C@@H](Cc2ccccc2)C(=O)N[C@@H](CCCNC(=N)N)C(=O)N[C@@H](Cc2ccc(O)cc2)C(=O)O)NC(=O)CNC(=O)[C@H](CC(C)C)NC(=O)CNC(=O)[C@H](CO)NC(=O)[C@H](CCC(N)=O)NC(=O)[C@H](C)NC(=O)CNC1=O` [α-hANP, α-human atrial natriuretic polypeptide]: the Solubility in solvents result in “Solubility in solvents” (ethyl acetate, butyl acetate, ethyl ether, hexane, petroleum ether, benzene, and chloroform) is on record as “insoluble”; in “Solubility in solvents” (methanol, and acetic acid), “partially”; in “Solubility in solvents” (water) it was “soluble”. For the same compound, the toxicity entry in series [1] (gradually hydrolized in a body providing the L-amino acids) is on record as “little toxicity”. Moreover, the anaphylaxis shock result in series [1] (repeated administration) was “does not cause anaphylaxis shock”. In series [1] (repeated administration), the production of antibodies entry was “does not stimulate production of antibodies”.
`NS(=O)(=O)c1cc(C(=O)O)c(NCc2ccco2)cc1Cl` [Furosemide, furosemide]: the “Urine volume A” value with Male rats (A: sample collected 5 minutes after administration) is 167 ± 28 µL/min. For the same compound, the “Urine volume B” value in the series on Male rats (B: sample collected 30 minutes before administration) stood at 8.6 ± 1.9 µL/min.

The values are drawn from patent US4748232A, “Peptide production and use thereof” (Suntory Limited, priority 1983, dated 1988).
